In patent publication US20250283049A1, “AGENT FOR CULTURING ORGANOID IN ABSENCE OF EXTRACELLULAR MATRIX” (KEIO UNIVERSITY, priority 2022, published 2025):

Test system: human large intestine-derived organoids dissociated into single cells
Assay: Organoid formation from single cells (Examination 2)
Type: cell-based
Details: absence of Matrigel, presence of TRULI 10 μM
Method: After dissociating human large intestine-derived organoids into single cells, organoid formation from the single cells was observed.
FIG. 27 is a graph showing the results of organoid formation from the single cells in the presence (+) or absence (−) of Matrigel (registered trademark) and in the absence (−) or presence (+, final concentration: 10 μM) of TRULI. […] In addition, the vertical axis of the graph represents the percentage (%) of cells that formed organoids among the seeded single cells.

Structure (SMILES): O=C(N=c1sccn1Cc1ccccc1)c1c[nH]c2ncccc12 [Lats-IN]
- organoid formation from single cells: proliferated from single cells and formed organoids
